Experimental data published in PMC8320897, “Inhibition of PI3K and MAPK pathways along with KIT inhibitors as a strategy to overcome drug resistance in gastrointestinal stromal tumors” (PLoS ONE, 2021).

Key:
GIST-T1/670 [1] = test: Cell proliferation assay (Cell Counting Kit-8); type: cell-based, human; conditions: for IC50: Homo sapiens, GISTT1, cell viability after 72 hours of treatment, read-out: IC50 T1/670
GIST882 = test: Cell proliferation assay (Cell Counting Kit-8), drug screen; type: cell-based; conditions: Homo sapiens, GIST882; cell viability after 72 hours of treatment; read-out: IC50 GIST882
GIST-T1 [2] = test: as above; type: cell-based, human; conditions: Homo sapiens, GISTT1; cell viability after 72 hours of treatment; read-out: IC50 GIST-T1
GIST-T1/10R [3] = test: Cell proliferation assay (Cell Counting Kit-8); type: cell-based, human; conditions: Homo sapiens, GISTT1; cell viability after 72 hours of treatment; read-out: IC50 T1-10R
GIST-T1/670 [4] = test: Caspase 3/7 apoptosis assay; type: cell-based, human; conditions: GIST-T1/670, 48 h, single agent
Source text: (§1) Inhibitor concentrations used were as mentioned in figure legends.
(§2) Fig 4 Combined Inhibition of KIT, PI3K and MAPK signaling pathways induces apoptosis in GIST cells. […] The data is represented as percent increase over untreated cells; each column represents mean of triplicates. […] (***p<0.0001); (**p<0.001); (*p<0.05).

p-Akt = test: Immunoblot analysis of p-Akt; type: cell-based; conditions: 100 nM, 24 h, all cell lines tested, western blot
metastatic GIST = conditions: cited from earlier work
p-MAPK = test: Immunoblot analysis of p-MAPK (p-ERK); type: cell-based; conditions: GIST-T1, IM 1 μM, 24 h, western blot
p-KIT = test: Immunoblot analysis of p-KIT; type: cell-based; conditions: 100 nM, GIST882, 24 h, western blot
Method: (C) GIST882 cells were treated with the indicated inhibitor concentrations for 24 h and cell lysates were run on SDS-PAGE followed by immunoblotting to detect the indicated proteins. Data is representative of two independent experiments.

GIST-T1 [5] = test: Caspase 3/7 apoptosis assay; type: cell-based, human; conditions: GIST-T1, 48 h, single agent
Source text: as §1, §2

GIST-T1/10R [6] = test: Caspase 3/7 apoptosis assay; type: cell-based, human; conditions: 48 h, single agent
Source text: as §1, §2

[7] = tested on: imatinib sensitive and resistant cell lines; test: Caspase 3/7 apoptosis assay of screen hits; conditions: 24 h and 48 h; irinotecan 0.5 μM, sorafenib 500 nM, compound C 5 μM, triptolide 25 nM
Method: (§3) Around 10,000 cells/well were plated in complete media in 96-well white flat-bottom plates and therapeutic compounds were added 24 hours later. Apoptosis was evaluated by measuring caspase-3/7 activity using Caspase-Glo 3/7 Assay System (Promega, WI, USA) after 24 and 48 h of treatment with inhibitors. […] Inhibitor concentrations used were as mentioned in figure legends.
(§4) The data is represented as % of control; each bar represents the mean of triplicates. […] Cells were treated with inhibitors at indicated concentrations for 24 h.

[8] = tested on: imatinib-resistant cell lines; test: Caspase 3/7 apoptosis assay of screen hits; type: cell-based; conditions: sorafenib 500 nM; both imatinib-resistant cell lines
Method: as §3, §4

GIST-T1/670 [9] = test: Clonogenic (colony outgrowth) assay after drug removal; type: cell-based, human; conditions: single agent, 1 month treatment, 2 weeks drug-free
Method: Cells were treated with either IM (1 μM), SU (1 μM), RE (1 μM), GDC (500 nM), PD (500 nM), trametinib (500 nM), either alone or in combination for 1 month with replacement of fresh media with drug every week. Thereafter, cells were washed with PBS twice and fresh media without inhibitors was added and colonies were allowed to grow for 2 more weeks. The colonies were stained with crystal violet and counted. Untreated wells were not revived for extra 2 weeks.
After 1-month duration of treatment, cells were allowed to grow in drug-free media for two weeks before staining with crystal violet.

GIST cell lines = test: Cell proliferation assay with trametinib; conditions: compared with PD, 72 h
[10] = clinical trials in GIST patients

| Structure (SMILES) | IC50 (GIST-T1/670 [1]) [nM] | IC50 (GIST882) [nM] | IC50 (GIST-T1 [2]) [nM] | IC50 (GIST-T1/10R [3]) [nM] | induction of apoptosis (caspase 3/7 activity) (GIST-T1/670 [4]) | induction of apoptosis (caspase 3/7 activity) (GIST-T1 [5]) | induction of apoptosis (caspase activity) (GIST-T1/10R [6]) | other results |
| --- | --- | --- | --- | --- | --- | --- | --- | --- |
| CS(=O)(=O)N1CCN(Cc2cc3nc(-c4cccc5[nH]ncc45)nc(N4CCOCC4)c3s2)CC1 [GDC-0941] | > 1000 | 500 | 300 | > 1000 | did not induce apoptosis | – | – | inhibition of phosphorylation of Akt (p-Akt): inhibits phosphorylation of Akt |
| Cc1ccc(NC(=O)c2ccc(CN3CCN(C)CC3)cc2)cc1Nc1nccc(-c2cccnc2)n1 [Imatinib] | – | – | – | – | did not induce apoptosis | did not induce apoptosis | did not show increase in caspase activity | stable disease (metastatic GIST; KIT/PDGFRA-driven metastatic GIST, share of cases): approximately 85%; time of treatment to secondary resistance mutations (metastatic GIST; prolonged exposure): 18–24 months; inhibition of downstream MAPK signaling (p-MAPK): 50%; inhibition of p-KIT (p-KIT): not sufficient to completely inhibit p-KIT |
| CNC(=O)c1cc(Oc2ccc(NC(=O)Nc3ccc(Cl)c(C(F)(F)F)c3)cc2)ccn1 [Sorafenib] | < 500 | < 100 | 25 | 200 | – | – | – | overall progression free survival (metastatic GIST; [10]): < 6 mo; overall response rate (metastatic GIST; [10]): < 10%; cytotoxic effects (caspase 3/7 activity) [7]: ≥ 2 fold; increase in apoptosis (caspase 3/7 activity) [8]: 4–8 fold |
| CCN(CC)CCNC(=O)c1c(C)[nH]c(/C=C2\C(=O)Nc3ccc(F)cc32)c1C [Sunitinib] | > 10000 | < 200 | 25 | > 10000 | – | not effective | did not induce apoptosis | sensitivity of cell line (proliferation) (GIST-T1/670 [1]; GIST-T1/670, S1A Fig): sensitive; time until resistance occurs (metastatic GIST; second-line / third-line therapy): 6–12 months; suppression of colony outgrowth (GIST-T1/670 [9]): effective |
| CC(=O)Nc1cccc(-n2c(=O)n(C3CC3)c(=O)c3c(Nc4ccc(I)cc4F)n(C)c(=O)c(C)c32)c1 [TR, trametinib] | – | – | – | – | – | – | – | inhibition of cell proliferation as a single agent (GIST cell lines): better at inhibiting cell proliferation than PD |
